Assay results from the NIST ThermoML archive (doi:10.1016/j.tca.2018.05.010).
Where “and” joins values, the source holds several entries; their conditions need not be identical. Equal entries are not always repeated. Numbers after ± are expanded uncertainties.

Tests used:
[1] = Molar enthalpy of transition or fusion; settings: Crystal; DSC
[2] = Crystal; for vapor or sublimation pressure: Transpiration method; for Normal melting temperature: DTA

Row | Molar enthalpy of transition or fusion [1] [kJ/mol] | vapor or sublimation pressure ([2]; 362.7 K) [kPa] | vapor or sublimation pressure ([2]; 367.8 K) [kPa] | vapor or sublimation pressure ([2]; 373 K) [kPa] | vapor or sublimation pressure ([2]; 388 K) [kPa] | vapor or sublimation pressure ([2]; 392.7 K) [kPa] | Normal melting temperature [2] [°C] | vapor or sublimation pressure ([2]; 352.9 K) [kPa] | vapor or sublimation pressure ([2]; 358.2 K) [kPa] | vapor or sublimation pressure ([2]; 362.9 K) [kPa] | vapor or sublimation pressure ([2]; 373.2 K) [kPa] | vapor or sublimation pressure ([2]; 387.9 K) [kPa] | Compound | vapor or sublimation pressure ([2]; 378 K) | vapor or sublimation pressure ([2]; 383 K)
1 | 24.8 ± 0.6 | 0.0016 ± 0.00062 | 0.00264 ± 0.001 | 0.00431 ± 0.0016 | 0.0164 ± 0.0061 | 0.0241 ± 0.0088 | 134.6 ± 1.1 |  |  |  |  |  | O=C(O)[C@@H](O)c1ccccc1 [(S)-2-hydroxy-2-phenylacetic acid] | 0.00647 ± 0.0026 kPa | 0.0109 ± 0.0042 kPa and 0.0107 ± 0.0041 kPa
2 | 25.1 ± 0.7 |  | 0.00284 ± 0.0011 |  |  |  | 121.2 ± 1.1 | 0.00068 ± 0.0003 | 0.00116 ± 0.00048 | 0.00193 ± 0.00074 | 0.0051 ± 0.0022 | 0.0179 ± 0.0067 | O=C(O)C(O)c1ccccc1 (stereo not drawn) [mandelic acid] | 0.0076 ± 0.003 kPa and 0.00771 ± 0.0031 kPa | 
